{
  "source": "patent US9867795B2",
  "about": "“Nitrated lipids and methods of making and using thereof” (The UAB Research Foundation, priority 2004, dated 2018)",
  "key": {"[1]": {"molecular_target": "T1, mineralocorticoid receptor (MR) (Homo sapiens, UniProt P08235)", "T1 construct": "expressed in transfected cells; host or cells: CV-1 cells", "T1 sequence (P08235 726-964 limits assumed)": "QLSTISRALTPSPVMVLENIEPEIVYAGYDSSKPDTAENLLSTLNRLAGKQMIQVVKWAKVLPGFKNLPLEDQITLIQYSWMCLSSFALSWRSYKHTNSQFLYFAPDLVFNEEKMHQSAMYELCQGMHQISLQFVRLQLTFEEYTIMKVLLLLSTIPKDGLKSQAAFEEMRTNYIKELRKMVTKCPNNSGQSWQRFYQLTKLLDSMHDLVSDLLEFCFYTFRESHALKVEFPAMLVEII", "assay": "CV-1 Gal4 ligand binding domain luciferase reporter assay", "format": "cell-based", "conditions": "LNO2 1 μM; CV-1 cells", "protocol": "(§1) Cell Transient Transfection Assay. CV-1 cells from ATCC (Manassas, Va.) were grown to ˜85% confluence in DMEM/F12 supplemented with 10% FBS, 1% penicillin-streptomycin. Then, cells were transiently co-transfected with a plasmid containing the luciferase gene under regulation by four Gal4 DNA binding elements (UASG×4 TK-Luciferase, a gift from Dr. Ronald M. Evans), in concert with plasmids containing the ligand binding domain for the different nuclear receptors fused to the Gal4 DNA binding domain. For assessing full-length PPAR receptors, CV-1 cells were transiently co-transfected with a plasmid containing the luciferase gene under the control of three tandem PPAR response elements (PPRE) (PPRE×3 TK-Luciferase) and hPPARγ, hPPARα or hPPARδ expression plasmids, respectively. In all cases, fluorescence protein (GFP) expression plasmid was co-transfected as the control for the transfection efficiency. Twenty-four hours after the transfection, cells were cultured for another 24 hours in Optium-MEM (Invitrogen, Carlsbad, Calif.). Then, cells were treated with different compounds as indicated in figures for 24 hours in Optium-MEM. Reporter luciferase assay kits from Promega (Madison, Wis.) were used to measure the luciferase activity according to the manufacturer's instructions with a luminometer (Victor II, Perkin-Elmer). Luciferase activity was normalized by GFP units. Each condition was performed at least in triplicates in each experiment."}, "[2]": {"molecular_target": "T2, progesterone receptor (PR) (Homo sapiens, UniProt P06401)", "T2 construct": "expressed in transfected cells; host or cells: CV-1 cells", "T2 sequence (P06401 679-913 limits assumed)": "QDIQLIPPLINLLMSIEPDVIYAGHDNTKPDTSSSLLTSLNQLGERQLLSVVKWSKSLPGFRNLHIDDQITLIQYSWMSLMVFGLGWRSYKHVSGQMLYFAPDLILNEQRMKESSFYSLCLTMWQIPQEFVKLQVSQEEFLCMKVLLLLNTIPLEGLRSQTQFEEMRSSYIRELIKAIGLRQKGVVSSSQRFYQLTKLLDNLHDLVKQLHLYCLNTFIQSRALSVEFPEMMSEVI", "assay": "CV-1 Gal4 ligand binding domain luciferase reporter assay", "format": "cell-based", "conditions": "LNO2 1 μM; CV-1 cells", "protocol": "as §1"}, "[3]": {"molecular_target": "T3, retinoic X receptor α (RXRα) (Homo sapiens, UniProt P19793)", "T3 construct": "expressed in transfected cells; host or cells: CV-1 cells", "T3 sequence (P19793 227-458 limits assumed)": "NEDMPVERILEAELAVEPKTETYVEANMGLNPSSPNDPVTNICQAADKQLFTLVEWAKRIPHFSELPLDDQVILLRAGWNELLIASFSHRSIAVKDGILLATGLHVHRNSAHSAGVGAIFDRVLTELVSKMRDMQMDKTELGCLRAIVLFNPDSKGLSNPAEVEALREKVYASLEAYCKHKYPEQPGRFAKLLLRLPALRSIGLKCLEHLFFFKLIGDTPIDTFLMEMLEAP", "assay": "CV-1 Gal4 ligand binding domain luciferase reporter assay", "format": "cell-based", "conditions": "LNO2 1 μM; CV-1 cells", "protocol": "as §1"}, "[4]": {"assay": "•NO release from LNO2 by oxymyoglobin oxidation", "protocol": "Apparent •NO formation was calculated from extents of oxymyoglobin oxidation in the visible wavelength range (spectrum) and at 580 nm (kinetic mode). Initial oxymyoglobin oxidation was calculated using a UV probe Version 1.10 (ε580 14.4 mM^−1 cm^−1). Decomposition of the NO2 group was followed at 268 nm and the appearance of oxidized products at 320 nm.\nTo monitor the concomitant decomposition of the parent LNO2 molecule, its UV spectrum was first analyzed. […] The decrease in absorbance at 268 nm paralleled •NO release, as detected by both EPR and oxymyoglobin oxidation.\n(§2) The formation of •NO was followed by EPR (measuring cPTI formation) in the presence of different concentrations of octyl-β-glucopyranoside (OG) and octyl-thio-β-glucopyranoside (OTG). The rate of •NO release was constant and not influenced by these detergents until the critical micellar concentration (CMC) for each was achieved, after which •NO formation was inhibited as the volume of the hydrophobic environment increased (FIG. 24A). Similar results were obtained when measuring •NO formation via conversion of oxymyoglobin to metmyoglobin. Apparent •NO release rates remained constant until OG concentration reached ˜2.8 mg/ml (CMC=2.77 mg/ml (11)). […] The inhibition of the NO2 group loss at 268 nm was paralleled by inhibition of the formation of oxidation products at 320 nm, similarly paralleling the detergent-induced inhibition of •NO release observed by EPR and oxymyoglobin-based detection."}, "[5]": {"assay": "Hydrophobic stabilization and micellar partition of LNO2", "format": "physicochemical", "excerpt": "as §2\nThus, a plot of 1/v vs. α will yield a linear plot with slope divided by y-axis intercept equal to K−1."}, "NF-kB pathways": {"tested_on": "NF-kB pathways", "assay": "NF-kB pathway activity (NFkB-response element luciferase reporter, IkB degradation)", "format": "cell-based", "conditions": "reporter in response to TNFa; IkB degradation in response to E. coli LPS"}, "[6]": {"conditions": "LNO2 130 μM, oxymyoglobin 20 μM"}},
  "data": [
    {"substance": "10-nitro-9,12-octadecadienoic acid and 12-nitro-9,12-octadecadienoic acid [LNO2]", "values": [
      {"measurement": "MR receptor activation", "setting": "[1]", "value": "no impact"},
      {"measurement": "PR receptor activation", "setting": "[2]", "value": "no impact"},
      {"measurement": "RXRα receptor activation", "setting": "[3]", "value": "no impact"},
      {"measurement": "apparent rate constant for •NO release", "setting": "[4]; 100 mM phosphate buffer, 100 μM DTPA, pH 7.4, oxymyoglobin to metmyoglobin", "value": "9.67e-06", "unit": "s⁻¹"},
      {"measurement": "OG concentration up to which apparent •NO release rates remained constant", "setting": "[4]; [6]", "value": "~2.8", "unit": "mg/mL"},
      {"measurement": "OTG concentration at which inhibition of LNO2-dependent •NO release occurred", "setting": "[4]; [6]", "value": "~7", "unit": "mg/mL"},
      {"measurement": "partition coefficient K", "setting": "[5]; FIG. 28 legend", "value": "~1500"},
      {"measurement": "stability in organic solvents", "setting": "[5]; organic solvents such as n-octanol", "value": "stable"},
      {"measurement": "activity of NF-kB pathways", "setting": "NF-kB pathways", "value": "inhibits activity of NF-kB pathways"}
    ]}
  ]
}
